Experiments:
Assay in all cases: relative viability (nuclei count vs DMSO), 5 days (fraction); higher = more cells survive
Bexarotene + Vorinostat = compound: C=C(c1ccc(C(=O)O)cc1)c1cc2c(cc1C)C(C)(C)CCC2(C)C [Bexarotene] + O=C(CCCCCCC(=O)Nc1ccccc1)NO [Vorinostat] (partner 1 µM)
Method in brief: (§1)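 Each reported value is a median over duplicate plates. It expresses relative viability: treated-well nuclei count divided by vehicle-well nuclei count. Lung cancer cell lines in 1536-well plates were dosed by pin tool a day after seeding, alone with one drug or with a fixed anchor-drug dose plus five library-drug doses (not always all listed) in √10 steps, and nuclei were counted after 5 days.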

Bexarotene + Pictilisib = compound: C=C(c1ccc(C(=O)O)cc1)c1cc2c(cc1C)C(C)(C)CCC2(C)C [Bexarotene] + CS(=O)(=O)N1CCN(Cc2cc3nc(-c4cccc5[nH]ncc45)nc(N4CCOCC4)c3s2)CC1 [Pictilisib] (partner 1 µM)
Method in brief: as §1

Bexarotene + Crizotinib = compound: C=C(c1ccc(C(=O)O)cc1)c1cc2c(cc1C)C(C)(C)CCC2(C)C [Bexarotene] + C[C@@H](Oc1cc(-c2cnn(C3CCNCC3)c2)cnc1N)c1c(Cl)ccc(F)c1Cl [Crizotinib] (partner 1 µM)
Method in brief: as §1

Bexarotene + Dasatinib = compound: C=C(c1ccc(C(=O)O)cc1)c1cc2c(cc1C)C(C)(C)CCC2(C)C [Bexarotene] + Cc1nc(Nc2ncc(C(=O)Nc3c(C)cccc3Cl)s2)cc(N2CCN(CCO)CC2)n1 [Dasatinib] (partner 0.075 µM)
Method in brief: as §1

| Cell Line | relative viability (Bexarotene + Vorinostat; first compound 0.08 µM) | relative viability (Bexarotene + Vorinostat; first compound 0.253 µM) | relative viability (Bexarotene + Vorinostat; first compound 0.8 µM) | relative viability (Bexarotene + Vorinostat; first compound 2.53 µM) | relative viability (Bexarotene + Vorinostat; first compound 8 µM) | relative viability (Bexarotene + Pictilisib; first compound 0.08 µM) | relative viability (Bexarotene + Pictilisib; first compound 0.253 µM) | relative viability (Bexarotene + Pictilisib; first compound 0.8 µM) | relative viability (Bexarotene + Pictilisib; first compound 2.53 µM) | relative viability (Bexarotene + Pictilisib; first compound 8 µM) | relative viability (Bexarotene + Crizotinib; first compound 0.08 µM) | relative viability (Bexarotene + Crizotinib; first compound 0.253 µM) | relative viability (Bexarotene + Crizotinib; first compound 0.8 µM) | relative viability (Bexarotene + Crizotinib; first compound 2.53 µM) | relative viability (Bexarotene + Crizotinib; first compound 8 µM) | relative viability (Bexarotene + Dasatinib; first compound 0.08 µM) | relative viability (Bexarotene + Dasatinib; first compound 0.253 µM) | relative viability (Bexarotene + Dasatinib; first compound 0.8 µM) | relative viability (Bexarotene + Dasatinib; first compound 2.53 µM) | relative viability (Bexarotene + Dasatinib; first compound 8 µM) |
| --- | --- | --- | --- | --- | --- | --- | --- | --- | --- | --- | --- | --- | --- | --- | --- | --- | --- | --- | --- | --- |
| HCC-366 | 0.361 | 0.487 | 0.329 | 0.276 | 0.328 | 0.23 | 0.178 | 0.165 | 0.141 | 0.29 | 0.526 | 0.62 | 0.35 | 0.574 | 0.586 | 0.737 | 0.67 | 0.613 | 0.649 | 0.621 |
| HCC-827 | 0.906 | 0.674 | 0.775 | 0.781 | 0.821 | 1.07 | 1.08 | 0.888 | 1.02 | 0.971 | 0.894 | 0.939 | 0.902 | 0.94 | 0.915 | 0.284 | 0.465 | 0.419 | 0.35 | 0.344 |
| HOP-62 | 0.808 | 0.831 | 0.709 | 0.555 | 0.624 | 1.04 | 0.811 | 0.684 | 0.79 | 0.626 | 1.18 | 0.915 | 0.953 | 1.09 | 0.944 | 0.677 | 0.641 | 0.428 | 0.606 | 0.57 |
| IA-LM | 0.79 | 0.817 | 0.756 | 0.718 | 0.7 | 0.335 | 0.314 | 0.476 | 0.313 | 0.319 | – | 1.03 | 0.676 | 0.678 | 0.62 | – | – | – | – | – |
| LC-2-ad | 0.82 | 0.845 | 0.744 | 0.703 | 0.665 | 0.809 | 0.473 | 0.433 | 0.503 | 0.381 | 0.443 | 0.46 | 0.44 | 0.504 | 0.412 | 0.696 | 0.602 | 0.575 | 0.497 | 0.625 |
| LCLC-97TM1 | 1.02 | 0.804 | 0.586 | 0.656 | 0.678 | 0.265 | 0.188 | 0.209 | 0.214 | 0.213 | 0.478 | 0.343 | 0.576 | 0.409 | 0.472 | 1.05 | 0.795 | 0.815 | 0.773 | 0.822 |
| LCLC-103H | 0.891 | 0.976 | 0.691 | 0.771 | 0.875 | 0.71 | 0.642 | 0.529 | 0.653 | 0.631 | 1.15 | 1.21 | 1.03 | 0.999 | 1.12 | 0.489 | 0.567 | 0.419 | 0.525 | 0.49 |
| LK-2 | 0.337 | 0.278 | 0.342 | 0.277 | 0.332 | 0.933 | 0.711 | 0.824 | 0.659 | 0.785 | 0.309 | 0.213 | 0.206 | 0.221 | 0.247 | 0.314 | 0.474 | 0.39 | – | 0.465 |
| LOU-NH91 | 0.973 | 0.956 | 0.933 | 0.836 | 0.849 | 0.546 | 0.537 | 0.508 | 0.492 | 0.505 | 0.767 | 0.73 | 0.696 | 0.686 | 0.639 | 0.584 | 0.613 | 0.467 | 0.521 | 0.502 |
| LU99A | 0.597 | 0.539 | 0.551 | 0.527 | 0.612 | 0.377 | 0.407 | 0.379 | 0.297 | 0.323 | 0.495 | 0.634 | 0.573 | 0.524 | 0.542 | 0.748 | 0.703 | 0.711 | 0.613 | 0.699 |
| LXF-289 | 0.906 | 0.907 | 0.861 | 0.789 | 0.935 | 0.798 | 0.68 | 0.711 | 0.581 | 0.604 | 0.901 | 0.994 | 1 | 0.979 | 0.973 | 0.213 | 0.195 | 0.179 | 0.127 | 0.155 |
| NCI-H1299 | – | – | – | – | – | 0.954 | 0.893 | 0.661 | 0.733 | 0.596 | 1 | 1.03 | 1.03 | 0.964 | 1.02 | – | – | – | – | – |
| NCI-H1395 | 0.963 | 0.775 | 0.723 | 0.49 | 0.73 | 0.678 | 0.603 | 0.571 | 0.807 | 0.762 | – | – | – | – | – | 0.448 | 0.385 | 0.367 | 0.407 | 0.419 |
| NCI-H1563 | – | – | – | – | – | 0.736 | 0.647 | 0.685 | 0.696 | 0.661 | 0.842 | 0.843 | 0.916 | 0.876 | 0.81 | 0.489 | 0.423 | 0.449 | 0.469 | 0.487 |
| NCI-H1648 | 0.477 | 0.422 | 0.455 | 0.518 | 0.639 | – | – | – | – | – | – | – | – | – | – | – | – | – | – | – |
| NCI-H1703 | – | – | – | – | – | 0.247 | 0.239 | 0.209 | 0.247 | 0.262 | 0.414 | 0.601 | 0.57 | 0.421 | 0.522 | – | – | – | – | – |
| NCI-H1792 | – | – | – | – | – | 0.244 | 0.204 | 0.213 | 0.252 | 0.205 | 0.859 | 0.947 | 0.874 | 0.737 | 0.831 | 0.82 | 0.769 | 0.764 | 0.786 | 0.689 |
| NCI-H1793 | 0.666 | 0.784 | 0.611 | 0.604 | 0.601 | 0.52 | 0.547 | 0.508 | 0.316 | 0.431 | – | – | – | – | – | 0.367 | 0.366 | 0.409 | 0.406 | 0.399 |
| NCI-H2342 | 0.758 | 0.647 | 0.666 | 0.571 | 0.731 | – | – | – | – | – | – | – | – | – | – | 0.331 | 0.301 | 0.256 | 0.33 | 0.419 |
| SW 900 | 0.543 | 0.473 | 0.433 | 0.453 | 0.471 | – | – | – | – | – | – | – | – | – | – | 0.703 | 0.55 | 0.505 | 0.544 | 0.772 |
